Results taken from US20210204550A1, “STABILIZED FUNGICIDAL COMPOSITION” (priority 2018, published 2021).
Where a name gives a salt, the structure may show the parent alone.

Assays:
[1] = tested on: Alternaria solani; assay: Antifungal activity against Alternaria solani on tomato plants (percent control relative to untreated plants); type: in vivo
[2] = tested on: Botrytis cinerea; assay: Antifungal activity against Botrytis cinerea on plants (percent control relative to untreated plants); details: Example 3; stored at 54° C. for two weeks or at 40° C. for eight weeks
[3] = Relative fusaricidin A levels in stored formulations by HPLC/MS TOF; details: Example 4; 54° C. for two weeks or 40° C. for eight weeks; FIGS. 3 and 4
[4] = agent at 2% in 70:30 (BC:water) dilution, after storage at 54° C. for two weeks
[5] = Example 3, stored at 54° C. for two weeks or at 40° C. for eight weeks
[6] = across the three assays of Tables 2-4, agent at 2% in 60:40 (BC:water) dilution

O=C([O-])CC(O)(CC(=O)[O-])C(=O)[O-].[K+].[K+].[K+] [Potassium citrate (tribasic), potassium citrate (tribasic)]
effect of stabilizing agent on antifungal activity of Paenibacillus sp. strain NRRL B-50972 BC [1, 4]: demonstrated a stabilizing effect

C[N+](C)(C)CC(=O)O [betaine hydrochloride]
effect of stabilizing agent on antifungal activity of Paenibacillus sp. strain NRRL B-50972 BC [2]: robust effect in stabilizing the antifungal activity
effect of stabilizing agent on antifungal activity of Paenibacillus sp. strain NRRL B-50972 BC [1, 5]: robust effect in stabilizing the antifungal activity

N=C(N)N [guanidine hydrochloride]
effect of stabilizing agent on antifungal activity of Paenibacillus sp. strain NRRL B-50972 BC [1, 6]: preserved the antifungal activity

O=P([O-])([O-])O.[K+].[K+] [potassium phosphate (dibasic)]
effect of stabilizing agent on antifungal activity of Paenibacillus sp. strain NRRL B-50972 BC [2]: less than that of urea and betaine hydrochloride
effect of stabilizing agent on antifungal activity of Paenibacillus sp. strain NRRL B-50972 BC [1, 5]: less than that of urea and betaine hydrochloride
effect of stabilizing agent on antifungal activity of Paenibacillus sp. strain NRRL B-50972 BC [1, 4]: stabilized the antifungal activity
effect of stabilizing agent on fusaricidin A in Paenibacillus sp. strain NRRL B-50972 BC [3]: had less of an effect in stabilizing fusaricidin A

O=P([O-])(O)O.[K+] [potassium phosphate (monobasic)]
effect of stabilizing agent on antifungal activity of Paenibacillus sp. strain NRRL B-50972 BC [1, 4]: did not

NC(N)=O [urea, carbonic diamide (CO(NH2)2)]
effect of stabilizing agent on antifungal activity of Paenibacillus sp. strain NRRL B-50972 BC [2]: robust effect in stabilizing the antifungal activity
effect of stabilizing agent on antifungal activity of Paenibacillus sp. strain NRRL B-50972 BC [1, 5]: robust effect in stabilizing the antifungal activity
effect of stabilizing agent on antifungal activity of Paenibacillus sp. strain NRRL B-50972 BC [1, 6]: preserved the antifungal activity

glycerol ethyl oxylate
effect of stabilizing agent on antifungal activity of Paenibacillus sp. strain NRRL B-50972 BC [1, 6]: had little effect
